What was measured:
[1] = Caco-2 permeability assay (CacoReady kit); type: in vitro ADME; conditions: human, Caco-2, Caco-2 barrier, CacoReady kit; above 1×10^−6 cm/s classified as permeable
Procedure, shortened: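 Apparent permeability coefficients (Papp) were measured across Caco-2 cell barriers using a ready-to-use kit run per the supplier's protocol. Values serve as a predictor of oral/intestinal bioavailability.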

[2] = molecular target: T1, recombinant human transglutaminase 2 (Homo sapiens, UniProt P21980); assay: Transglutaminase assay (DCC-assay): incorporation of dansylcadaverine into dimethylcasein; type: biochemical; conditions: recombinant human TG2 10 nM; dansylcadaverine incorporation into dimethylcasein; read-out: IC50 TG2
T1 construct: purchased Zedira T022
T1 sequence (P21980 1-687): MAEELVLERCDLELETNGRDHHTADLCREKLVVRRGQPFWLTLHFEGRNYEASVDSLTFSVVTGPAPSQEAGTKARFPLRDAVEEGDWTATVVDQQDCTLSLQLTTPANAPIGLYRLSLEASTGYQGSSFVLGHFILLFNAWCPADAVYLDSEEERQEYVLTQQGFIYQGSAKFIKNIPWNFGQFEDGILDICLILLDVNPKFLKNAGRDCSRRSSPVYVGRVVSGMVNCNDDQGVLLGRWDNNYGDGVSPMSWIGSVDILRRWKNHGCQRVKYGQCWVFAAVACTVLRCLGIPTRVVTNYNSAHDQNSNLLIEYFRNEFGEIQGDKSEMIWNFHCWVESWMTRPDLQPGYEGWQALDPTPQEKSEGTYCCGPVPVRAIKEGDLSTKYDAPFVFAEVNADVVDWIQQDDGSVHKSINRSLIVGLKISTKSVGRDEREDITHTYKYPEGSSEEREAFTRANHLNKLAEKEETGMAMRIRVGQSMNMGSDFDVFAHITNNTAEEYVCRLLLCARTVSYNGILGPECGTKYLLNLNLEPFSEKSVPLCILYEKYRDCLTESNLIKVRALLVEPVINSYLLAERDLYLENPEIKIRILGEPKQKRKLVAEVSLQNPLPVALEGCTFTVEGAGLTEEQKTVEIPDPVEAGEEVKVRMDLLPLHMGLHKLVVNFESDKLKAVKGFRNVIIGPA
Procedure, shortened: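 Recombinant human TG2 (10 nM final) incorporates dansylcadaverine into N,N-dimethylcasein. Reaction mix: 50 mM Tris-HCl, 10 mM CaCl2, 10 mM glutathione, 2.5% glycerol, 16.7 µM dansylcadaverine, 4 µM dimethylcasein, 200 mM NaCl, pH 8.0. Fluorescence (ex 330/em 500 nm) was followed 30 min at 37 °C; the 20–30 min slope, expressed as % of 2% DMSO control, gave IC50.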

[3] = logD by shake flask method (octanol / PBS pH 7.4, HPLC); type: physicochemical; conditions: octanol / PBS pH 7.4, shake flask
Procedure, shortened: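 Shake-flask partition of compound between octanol and phosphate-buffered saline at pH 7.4, with each phase quantified by HPLC to give LogD.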

SMILES	Papp [1]	IC50 [2]	logD [3]
CNC(=O)C(=O)CC[C@H](NC(=O)c1cc(Br)cs1)C(=O)Nc1cccn(CC(=O)NC2C3CC4CC(C3)CC2C4)c1=O (stereo partly drawn) [II-40, (S)-2-(4-bromothiophene-2-carboxamido)-N1-(1-(2-(2-adamantylamino)-2-oxoethyl)-2-oxo-1,2-dihydropyridin-3-yl)-N6-methyl-5-oxohexanediamide]	< 1 ×10⁻⁶ cm/s	< 40 nM	3 to 5
CNC(=O)C(=O)CC[C@H](NC(=O)c1nc(Cl)sc1C)C(=O)Nc1cccn(CC(=O)NC2C3CC4CC(C3)CC2C4)c1=O (stereo partly drawn) [II-31, (S)-2-(2-chloro-5-methylthiazole-4-carboxamido)-N1-(1-(2-(2-adamantylamino)-2-oxoethyl)-2-oxo-1,2-dihydropyridin-3-yl)-N6-methyl-5-oxohexanediamide]	1 to 10 ×10⁻⁶ cm/s	40 to 400 nM	1 to 3
CNC(=O)C(=O)CC[C@H](NC(=O)c1cc(Br)co1)C(=O)Nc1cccn(CC(=O)NC2C3CC4CC(C3)CC2C4)c1=O (stereo partly drawn) [II-47, (S)-2-(4-bromofuran-2-carboxamido)-N1-(1-(2-(2-adamantylamino)-2-oxoethyl)-2-oxo-1,2-dihydropyridin-3-yl)-N6-methyl-5-oxohexanediamide]	1 to 10 ×10⁻⁶ cm/s	< 40 nM	1 to 3
CNC(=O)C(=O)CC[C@H](NC(=O)c1cc(Cl)c(Cl)s1)C(=O)Nc1cccn(CC(=O)NC2C3CC4CC(C3)CC2C4)c1=O (stereo partly drawn) [II-49, (S)-2-(4,5-dichlorothiophene-2-carboxamido)-N1-(1-(2-(2-adamantylamino)-2-oxoethyl)-2-oxo-1,2-dihydropyridin-3-yl)-N6-methyl-5-oxohexanediamide]	1 to 10 ×10⁻⁶ cm/s	< 40 nM	3 to 5
CNC(=O)C(=O)CC[C@H](NC(=O)[C@@H]1C[C@H](Br)CN1)C(=O)Nc1cccn(CC(=O)NC2C3CC4CC(C3)CC2C4)c1=O (stereo partly drawn) [II-56, (S)-2-((2S,4S)-4-bromopyrrolidine-2-carboxamido)-N1-(1-(2-(2-adamantylamino)-2-oxoethyl)-2-oxo-1,2-dihydropyridin-3-yl)-N6-methyl-5-oxohexanediamide]	< 1 ×10⁻⁶ cm/s	40 to 400 nM	1 to 3
CNC(=O)C(=O)CC[C@H](NC(=O)c1cc2ccccc2[nH]1)C(=O)Nc1cccn(CC(=O)NC2C3CC4CC(C3)CC2C4)c1=O (stereo partly drawn) [II-9, (S)-2-(1H-indole-2-carboxamido)-N1-(1-(2-(2-adamantylamino)-2-oxoethyl)-2-oxo-1,2-dihydropyridin-3-yl)-N6-methyl-5-oxohexanediamide]	1 to 10 ×10⁻⁶ cm/s	< 40 nM	1 to 3
CNC(=O)C(=O)CC[C@H](NC(=O)c1sc(-c2ccccc2)nc1C)C(=O)Nc1cccn(CC(=O)NC2C3CC4CC(C3)CC2C4)c1=O (stereo partly drawn) [II-19, (S)-N1-(1-(2-(2-adamantylamino)-2-oxoethyl)-2-oxo-1,2-dihydropyridin-3-yl)-N6-methyl-2-(4-methyl-2-phenylthiazole-5-carboxamido)-5-oxohexanediamide]	< 1 ×10⁻⁶ cm/s	40 to 400 nM	3 to 5

Results, then the molecule that gave them:

Papp [1]	IC50 [2]	logD [3]	SMILES
< 1 ×10⁻⁶ cm/s	40 to 400 nM	< 1	CNC(=O)C(=O)CC[C@H](NC(=O)c1snnc1C)C(=O)Nc1cccn(CC(=O)NC2C3CC4CC(C3)CC2C4)c1=O (stereo partly drawn) [II-141, (S)-N1-(1-(2-(2-adamantylamino)-2-oxoethyl)-2-oxo-1,2-dihydropyridin-3-yl)-N6-methyl-2-(4-methyl-1,2,3-thiadiazole-5-carboxamido)-5-oxohexanediamide]
< 1 ×10⁻⁶ cm/s	40 to 400 nM	< 1	CNC(=O)C(=O)CC[C@H](NC(=O)c1snnc1C1CC1)C(=O)Nc1cccn(CC(=O)NC2C3CC4CC(C3)CC2C4)c1=O (stereo partly drawn) [II-202, (S)-2-(4-cyclopropyl-1,2,3-thiadiazole-5-carboxamido)-N1-(1-(2-(2-adamantylamino)-2-oxoethyl)-2-oxo-1,2-dihydropyridin-3-yl)-N6-methyl-5-oxohexanediamide]
< 1 ×10⁻⁶ cm/s	400 to 2500 nM	1 to 3	O=C(Cn1cccc(NC(=O)[C@H](CCC(=O)C(=O)NC2CCCCC2)NC(=O)c2cc3ccccc3nn2)c1=O)NC12CC(C1)C2 [II-181, (S)-N1-(1-(2-(bicyclo[1.1.1]pentan-1-ylamino)-2-oxoethyl)-2-oxo-1,2-dihydropyridin-3-yl)-2-(cinnoline-3-carboxamido)-N6-cyclohexyl-5-oxohexanediamide]
1 to 10 ×10⁻⁶ cm/s	< 40 nM	< 1	Cc1c(C(=O)N[C@@H](CCC(=O)C(N)=O)C(=O)Nc2cccn(CC(=O)N[C@@H]3C[C@H]4CC[C@@H]3C4)c2=O)oc2ccccc12 [II-147, (S)-N1-(1-(2-((1R,2R,4S)-bicyclo[2.2.1]heptan-2-ylamino)-2-oxoethyl)-2-oxo-1,2-dihydropyridin-3-yl)-2-(3-methylbenzofuran-2-carboxamido)-5-oxohexanediamide]
1 to 10 ×10⁻⁶ cm/s	40 to 400 nM	< 1	CNC(=O)C(=O)CC[C@H](NC(=O)c1cnc(C(C)C)o1)C(=O)Nc1cccn(CC(=O)NC23CCC(C2)C3)c1=O [II-170, (S)-N1-(1-(2-(bicyclo[2.1.1]hexan-1-ylamino)-2-oxoethyl)-2-oxo-1,2-dihydropyridin-3-yl)-2-(2-isopropyloxazole-5-carboxamido)-N6-methyl-5-oxohexanediamide]
1 to 10 ×10⁻⁶ cm/s	40 to 400 nM	3 to 5	CNC(=O)C(=O)CC[C@H](NC(=O)c1oc2ccccc2c1C)C(=O)Nc1cccn(CC23CC4CC(CC(Br)(C4)C2)C3)c1=O [II-109, (2S)-N1-(1-((3-bromo-1-adamantyl)methyl)-2-oxo-1,2-dihydropyridin-3-yl)-N6-methyl-2-(3-methylbenzofuran-2-carboxamido)-5-oxohexanediamide]
< 1 ×10⁻⁶ cm/s	40 to 400 nM	1 to 3	CNC(=O)C(=O)CC[C@H](NC(=O)c1oc2ccccc2c1C)C(=O)Nc1cccn(CC(=O)NC2(C#N)C3CC4CC(C3)CC2C4)c1=O (stereo partly drawn) [II-73, (S)-N1-(1-(2-(2-carbonitrileadamantane-2-amino)-2-oxoethyl)-2-oxo-1,2-dihydropyridin-3-yl)-N6-methyl-2-(3-methylbenzofuran-2-carboxamido)-5-oxohexanediamide]
< 1 ×10⁻⁶ cm/s	40 to 400 nM	1 to 3	CNC(=O)C(=O)CC[C@H](NC(=O)c1cncn1C)C(=O)Nc1cccn(CC(=O)NC23CC4(C)CC(C)(CC(C)(C4)C2)C3)c1=O [II-211, (S)-N1-(1-(2-(3,5,7-trimethyl-1-adamantylamino)-2-oxoethyl)-2-oxo-1,2-dihydropyridin-3-yl)-N6-methyl-2-(1-methyl-1H-imidazole-5-carboxamido)-5-oxohexanediamide]
1 to 10 ×10⁻⁶ cm/s	40 to 400 nM	< 1	CNC(=O)C(=O)CC[C@H](NC(=O)c1c(C)noc1C)C(=O)Nc1cccn(CC(=O)NC2C3CCCC2CC3)c1=O (stereo partly drawn) [II-172, (2S)-N1-(1-(2-(bicyclo[3.2.1]octan-8-ylamino)-2-oxoethyl)-2-oxo-1,2-dihydropyridin-3-yl)-2-(3,5-dimethylisoxazole-4-carboxamido)-N6-methyl-5-oxohexanediamide]
